Results: article PMC8406801, “Naringenin Inhibits Platelet Activation and Arterial Thrombosis Through Inhibition of Phosphoinositide 3-Kinase and Cyclic Nucleotide Signaling” (Frontiers in Pharmacology, 2021)
Values joined by “and” are separate entries in the source; they are usually repeats but may differ in a detail not shown here. Equal values may be shown once.

Experiments:
[1] = tested on: PI3Kp110β; assay: Ex vivo immunoblotting of PI3Kp110β in ADP-stimulated PRP of treated rats; set-up: species or system rat; conditions: clopidogrel group, ex vivo; Figure 8B
Protocol: (§1) Male SD rats were randomly divided into 5 groups with 6 rats in each group. […] Sixty minutes after the last sample treatment, blood was drawn from the abdominal aorta of rats into the siliconized vacutainers containing 1:9 (v/v) 3.8% sodium citrate. The collected blood was centrifuged at 100 × g for 10 min at room temperature to obtain PRP. […] The platelet counts of PRP were adjusted to 4×10^8 cells/mL using PPP. PRP was incubated for 5 min at 37°C and then stimulated by ADP (5 μM). The maximum platelet aggregation rate was determined as mentioned above.
(§2) For in vitro platelet aggregation, aliquots of washed platelets were preincubated with vehicle or various concentrations of naringenin for 5 min and stimulated with ADP (10 μmol/L) under stirring at 37°C for 5 min. For ex vivo platelet aggregation, PRP was incubated at 37°C for 5 min and stimulated with ADP (5 μmol/L) under stirring at 37 °C. The platelet aggregation was terminated by adding ethylenediaminetetraacetic acid (EDTA; 10 mM). Total protein was prepared using RIPA lysis buffer and protein content was determined by bicinchoninic acid (BCA) protein assay kit. Equal amounts of platelet proteins (30 μg) were separated on 10% SDS polyacrylamide gel electrophoresis (SDS-PAGE) and then transferred to poly vinylidene difluoride (PVDF) membranes and subjected to western blot. Blots were blocked with TBS-Tween 20 containing 5% BSA and probed with primary antibodies diluted in blocking solution at 4°C overnight followed by incubation with the corresponding HRP secondary antibodies. The protein bands were visualized using enhanced chemiluminescence (ECL).
(§3) Blood was collected and PRP was obtained after the last treatment. Platelet aggregation was induced by ADP (5 μmol/L) (A). Data are expressed as means ± SD (n = 6). After ADP stimulation, platelet proteins were then extracted and analyzed by immunoblotting using PI3Kp110β antibody (B) and phospho-specific antibodies such as Akt^Ser473 (C), Akt^Thr308 (D) and ERK1/2^Thr202/Tyr204 (E). Total level of GAPDH was measured on each sample as a loading control. The blots shown are representative of three separate experiments. The relative protein expression levels were quantified by ImageJ 1.47v software. The level of relative protein expression obtained with vehicle control was taken as 1. R represents the level of relative protein expression in resting platelets. Data are expressed as means ± SD (n = 3). *p < 0.05, **p < 0.01, ***p < 0.001 compared with the vehicle control group (Con).
(§4) To further investigate the antiplatelet mechanisms of naringenin ex vivo, several signaling molecules such as PI3Kp110β, Akt and ERK were detected. After oral administration of naringenin (200, 400, and 800 mg/kg) to rats for 7 days, rat PRP was prepared and stimulated by ADP (5 μmol/L), and platelets were lysed to determine protein phosphorylation levels using western blot.

[2] = tested on: carotid arterial thrombus; assay: FeCl3-induced carotid arterial thrombus model in rats; format: in vivo, rat; conditions: oral 7.875 mg/kg for 7 days
Protocol: To determine the effects of naringenin on thrombogenesis, a FeCl3-induced carotid arterial thrombus model was performed as reported previously with some modifications ([Eckly et al., 2011]). […] The rats were anaesthetized using 1% pentobarbital sodium salt and fixed supinely after the last administration. The left carotid artery was exposed and thrombosis was induced by applying a Whatman filter paper (5 mm × 1 mm) saturated with 10% (w/v) FeCl3 on the top of the left carotid artery for 5 min. […] Time to occlusion of the carotid artery was defined as a blood flow of 0 ml/min for 3 min. […] At the end of the experiment, the left carotid artery was dissected. A haematoxylin and eosin stain was performed on the artery.

[3] = tested on: Akt Thr308 phosphorylation; assay: Ex vivo immunoblotting of phospho-Akt (Thr308) in ADP-stimulated PRP of treated rats; set-up: species or system rat; conditions: clopidogrel group, ex vivo; Figure 8D
Protocol: as §1, §2, §3, §4

[4] = tested on: tail bleeding; conditions: mouse, in vivo, po, 11.375 mg/kg
Protocol: Sixty minutes after the last administration, mice were anaesthetized with 1% pentobarbital sodium salt and placed on a 37°C heating pad. The tail was transected at a site 3 mm proximal to the tip and immediately immersed into saline kept at 37°C. The time to bleeding cessation (defined as no bleeding for 30 s) was measured. When the bleeding time lasted longer than 10 min, the bleeding was stopped, and the bleeding time was recorded as 10 min.

[5] = tested on: Akt Ser473 phosphorylation; assay: Ex vivo immunoblotting of phospho-Akt (Ser473) in ADP-stimulated PRP of treated rats; set-up: species or system rat; conditions: clopidogrel group, ex vivo; Figure 8C
Protocol: as §1, §2, §3, §4

[6] = tested on: washed rat platelets; assay: ADP (10 μM)-induced aggregation of washed rat platelets; format: cell-based; conditions: Figure 5A: washed platelets, ADP 10 μM, LY294002 5 μM alone; single replicates
[7] = tested on: Akt Ser473 phosphorylation; assay: Immunoblotting of phospho-Akt (Ser473) in ADP-stimulated washed platelets; format: cell-based, rat; conditions: Figure 5B: ADP 10 μM, LY294002 5 μM alone, single replicates
Protocol: as §2
FIGURE 4 Naringenin inhibits PI3K-mediated signaling in ADP-induced platelets. Washed rat platelets were preincubated without or with naringenin at 37°C for 5 min, and then stimulated with ADP (10 μmol/L) under stirring for 5 min. Platelet proteins were then extracted and analyzed by immunoblotting using PI3Kp110β antibody (A) and phospho-specific antibodies such as Akt^Ser473 (B), Akt^Thr308 (C), ERK1/2^Thr202/Tyr204 (D) and GSK3β^Ser9 (E). Total level of GAPDH was measured on each sample as a loading control. The blots shown are representative of three separate experiments. The relative protein expression levels were quantified by ImageJ 1.47v software. The level of relative protein expression obtained with vehicle control (0 μM) was taken as 1. R represents the level of relative protein expression in resting platelets. Data are expressed as means ± SD (n = 3). *p < 0.05, **p < 0.01, ***p < 0.001 compared with the vehicle control group.
FIGURE 5 Effects of naringenin combined with PI3K pan inhibitor LY294002 on platelet aggregation and Akt phosphorylation. Washed rat platelets were preincubated with naringenin (200 μmol/L) alone, the PI3K pan inhibitor LY294002 (5 μmol/L) alone or both for 5 min prior to ADP (10 μmol/L) activation. After stimulation with ADP, platelet aggregation was quantified and expressed as a percentage (A). Data are expressed as means ± SD (n = 6). ***p < 0.001 compared with the ADP-treated group, ^### p < 0.001 compared with naringenin alone or LY294002 alone. Platelet proteins were then extracted and specific antibodies were used to measure the level of total and phosphorylated Akt (B). The blots shown are representative of three separate experiments. The relative protein expression levels were quantified by ImageJ 1.47v software. The level of phosphorylation obtained in the ADP-treated group was taken as 1. Data are expressed as means ± SD (n = 3). ***p < 0.001 compared with the ADP-treated group, ^### p < 0.001 compared with naringenin alone or LY294002 alone.

| SMILES | PI3Kp110β / GAPDH (Fold to Control) [1] | PI3Kp110β / GAPDH (raw data) [1] | vessel occlusion time of rats [2] | Occlusion time ([2]; 10% FeCl3, single animals, no occlusion within 20 min recorded as 20 min, 7.875 mg/kg) | p-Akt Thr308 / t-Akt (Fold to Control) [3] | p-Akt Thr308 / t-Akt (raw data) [3] | effect on tail bleeding time [4] | p-Akt Ser473 / t-Akt (Fold to Control) [5] | p-Akt Ser473 / t-Akt (raw data) [5] | Aggregation (%) [6] | p-Akt Ser473 / t-Akt ([7]; raw data) | p-Akt Ser473 / t-Akt (Fold to ADP only) [7] |
| --- | --- | --- | --- | --- | --- | --- | --- | --- | --- | --- | --- | --- |
| COC(=O)[C@H](c1ccccc1Cl)N1CCc2sccc2C1 [Clopidogrel, clopidogrel, reference compound] | 0.8304 and 0.8095 and 1.1247 | 0.4069 and 0.3966 and 0.5511 | considerably delayed | 18.3 min and 20.0 min | 0.3303 and 0.3457 and 0.2827 | 0.2780 and 0.2909 and 0.2379 | markedly extended | 0.1574 and 0.1140 and 0.1683 | 0.1750 and 0.1267 and 0.1870 | – | – | – |
| O=c1cc(N2CCOCC2)oc2c(-c3ccccc3)cccc12 [LY294002, reference compound] | – | – | – | – | – | – | – | – | – | 47.5% and 35.4% and 37.3% and 29.8% and 45.4% and 28.0% | 0.3729 and 0.2624 and 0.3579 | 0.4284 Fold to ADP only and 0.3015 Fold to ADP only and 0.4113 Fold to ADP only |
